Data from PubChem BioAssay (NCI).
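Protocol summary: plate cells (96-well), add compound at 5 concentrations, incubate 48 h, interpolate endpoints linearly. GI50 is the concentration that inhibits growth by half. Definition used: TGI = concentration required for complete inhibition of growth.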

Assays:
Assay in all cases: NCI-60 cell line screen, 48 h
CCRF-CEM leukemia = tested on: CCRF-CEM leukemia
BT-549 breast = tested on: BT-549 breast
UACC-62 melanoma = tested on: UACC-62 melanoma
HOP-92 NSCLC = tested on: HOP-92 NSCLC
PC-3 prostate = tested on: PC-3 prostate
MCF7 breast = tested on: MCF7 breast
EKVX NSCLC = tested on: EKVX NSCLC
SNB-19 CNS = tested on: SNB-19 CNS
RPMI-8226 leukemia = tested on: RPMI-8226 leukemia
SF-539 CNS = tested on: SF-539 CNS
COLO 205 colon = tested on: COLO 205 colon
SW-620 colon = tested on: SW-620 colon
NCI-H522 lung = tested on: NCI-H522 lung
MDA-MB-231 breast = tested on: MDA-MB-231 breast
DU-145 prostate = tested on: DU-145 prostate
CAKI-1 renal = tested on: CAKI-1 renal
SNB-75 CNS = tested on: SNB-75 CNS
NCI-H460 lung = tested on: NCI-H460 lung
NCI-H226 lung = tested on: NCI-H226 lung
M14 melanoma = tested on: M14 melanoma
OVCAR-8 ovarian = tested on: OVCAR-8 ovarian
UO-31 renal = tested on: UO-31 renal
MALME-3M melanoma = tested on: MALME-3M melanoma
HOP-62 NSCLC = tested on: HOP-62 NSCLC
HT29 colon = tested on: HT29 colon
OVCAR-3 ovarian = tested on: OVCAR-3 ovarian
A498 renal = tested on: A498 renal
U251 CNS = tested on: U251 CNS
ACHN renal = tested on: ACHN renal
SK-MEL-28 melanoma = tested on: SK-MEL-28 melanoma
SF-268 CNS = tested on: SF-268 CNS
A549 NSCLC = tested on: A549 NSCLC
UACC-257 melanoma = tested on: UACC-257 melanoma
SK-MEL-5 melanoma = tested on: SK-MEL-5 melanoma
HCT-15 colon = tested on: HCT-15 colon
SF-295 CNS = tested on: SF-295 CNS
T-47D breast = tested on: T-47D breast
RXF 393 renal = tested on: RXF 393 renal
KM12 colon = tested on: KM12 colon
MDA-MB-435 = tested on: MDA-MB-435
HCC-2998 colon = tested on: HCC-2998 colon
HCT-116 colon = tested on: HCT-116 colon
HL-60(TB) leukemia = tested on: HL-60(TB) leukemia
TK-10 renal = tested on: TK-10 renal
OVCAR-4 ovarian = tested on: OVCAR-4 ovarian
K-562 leukemia = tested on: K-562 leukemia
LOX IMVI melanoma = tested on: LOX IMVI melanoma
IGROV1 ovarian = tested on: IGROV1 ovarian
HS 578T breast = tested on: HS 578T breast
SR leukemia = tested on: SR leukemia
OVCAR-5 ovarian = tested on: OVCAR-5 ovarian
NCI-H23 lung = tested on: NCI-H23 lung
SK-MEL-2 melanoma = tested on: SK-MEL-2 melanoma
786-0 renal = tested on: 786-0 renal
SN12C renal = tested on: SN12C renal
NCI/ADR-RES ovarian = tested on: NCI/ADR-RES ovarian

Nn1c2c(c3ccccc3c1=O)C(=O)c1ccccc1-2 gave a GI50 (CCRF-CEM leukemia) of over 50 µM, a TGI (CCRF-CEM leukemia) of over 50 µM and a GI50 (BT-549 breast) of over 50 µM. It also gave a TGI (BT-549 breast) of over 50 µM, a GI50 (UACC-62 melanoma) of over 50 µM and a TGI (UACC-62 melanoma) of over 50 µM. For the same molecule, the GI50 (HOP-92 NSCLC) was over 50 µM, the TGI (HOP-92 NSCLC) was over 50 µM and the GI50 (PC-3 prostate) was over 50 µM. The TGI (PC-3 prostate) was over 50 µM, the GI50 (MCF7 breast) was 20 µM and the TGI (MCF7 breast) was over 50 µM. For the same molecule, the GI50 (EKVX NSCLC) was over 50 µM, the TGI (EKVX NSCLC) was over 50 µM and the GI50 (SNB-19 CNS) was 20.9 µM. It also gave a TGI (SNB-19 CNS) of over 50 µM, a GI50 (RPMI-8226 leukemia) of over 50 µM and a TGI (RPMI-8226 leukemia) of over 50 µM. It also gave a GI50 (SF-539 CNS) of 27.9 µM, a TGI (SF-539 CNS) of over 50 µM and a GI50 (COLO 205 colon) of over 50 µM. It also gave a TGI (COLO 205 colon) of over 50 µM, a GI50 (SW-620 colon) of over 50 µM and a TGI (SW-620 colon) of over 50 µM. The GI50 (NCI-H522 lung) was 30.1 µM, the TGI (NCI-H522 lung) was over 50 µM and the GI50 (MDA-MB-231 breast) was over 50 µM. For the same molecule, the TGI (MDA-MB-231 breast) was over 50 µM, the GI50 (DU-145 prostate) was over 50 µM and the TGI (DU-145 prostate) was over 50 µM. It also gave a GI50 (CAKI-1 renal) of over 50 µM, a TGI (CAKI-1 renal) of over 50 µM and a GI50 (SNB-75 CNS) of 11.6 µM. For the same molecule, the TGI (SNB-75 CNS) was 33.5 µM, the GI50 (NCI-H460 lung) was 40.5 µM and the TGI (NCI-H460 lung) was over 50 µM. For the same molecule, the GI50 (NCI-H226 lung) was 48.3 µM, the TGI (NCI-H226 lung) was over 50 µM and the GI50 (M14 melanoma) was over 50 µM. For the same molecule, the TGI (M14 melanoma) was over 50 µM, the GI50 (OVCAR-8 ovarian) was 26.7 µM and the TGI (OVCAR-8 ovarian) was over 50 µM. It also gave a GI50 (UO-31 renal) of over 50 µM, a TGI (UO-31 renal) of over 50 µM and a GI50 (MALME-3M melanoma) of over 50 µM. For the same molecule, the TGI (MALME-3M melanoma) was over 50 µM, the GI50 (HOP-62 NSCLC) was 24.5 µM and the TGI (HOP-62 NSCLC) was over 50 µM. The GI50 (HT29 colon) was over 50 µM, the TGI (HT29 colon) was over 50 µM and the GI50 (OVCAR-3 ovarian) was over 50 µM. The TGI (OVCAR-3 ovarian) was over 50 µM, the GI50 (A498 renal) was over 50 µM and the TGI (A498 renal) was over 50 µM. For the same molecule, the GI50 (U251 CNS) was 20.5 µM, the TGI (U251 CNS) was over 50 µM and the GI50 (ACHN renal) was over 50 µM. It also gave a TGI (ACHN renal) of over 50 µM, a GI50 (SK-MEL-28 melanoma) of over 50 µM and a TGI (SK-MEL-28 melanoma) of over 50 µM. The GI50 (SF-268 CNS) was 15.7 µM, the TGI (SF-268 CNS) was over 50 µM and the GI50 (A549 NSCLC) was over 50 µM. It also gave a TGI (A549 NSCLC) of over 50 µM, a GI50 (UACC-257 melanoma) of over 50 µM and a TGI (UACC-257 melanoma) of over 50 µM. For the same molecule, the GI50 (SK-MEL-5 melanoma) was over 50 µM, the TGI (SK-MEL-5 melanoma) was over 50 µM and the GI50 (HCT-15 colon) was over 50 µM. It also gave a TGI (HCT-15 colon) of over 50 µM, a GI50 (SF-295 CNS) of 30.1 µM and a TGI (SF-295 CNS) of over 50 µM. The GI50 (T-47D breast) was over 50 µM, the TGI (T-47D breast) was over 50 µM and the GI50 (RXF 393 renal) was 15.7 µM. It also gave a TGI (RXF 393 renal) of over 50 µM, a GI50 (KM12 colon) of over 50 µM and a TGI (KM12 colon) of over 50 µM. It also gave a GI50 (MDA-MB-435) of over 50 µM, a TGI (MDA-MB-435) of over 50 µM and a GI50 (HCC-2998 colon) of over 50 µM. It also gave a TGI (HCC-2998 colon) of over 50 µM, a GI50 (HCT-116 colon) of over 50 µM and a TGI (HCT-116 colon) of over 50 µM. It also gave a GI50 (HL-60(TB) leukemia) of over 50 µM, a TGI (HL-60(TB) leukemia) of over 50 µM and a GI50 (TK-10 renal) of 18.1 µM. For the same molecule, the TGI (TK-10 renal) was over 50 µM, the GI50 (OVCAR-4 ovarian) was over 50 µM and the TGI (OVCAR-4 ovarian) was over 50 µM. It also gave a GI50 (K-562 leukemia) of over 50 µM, a TGI (K-562 leukemia) of over 50 µM and a GI50 (LOX IMVI melanoma) of over 50 µM. It also gave a TGI (LOX IMVI melanoma) of over 50 µM, a GI50 (IGROV1 ovarian) of over 50 µM and a TGI (IGROV1 ovarian) of over 50 µM. The GI50 (HS 578T breast) was 18.4 µM, the TGI (HS 578T breast) was over 50 µM and the GI50 (SR leukemia) was 31 µM. For the same molecule, the TGI (SR leukemia) was over 50 µM, the GI50 (OVCAR-5 ovarian) was over 50 µM and the TGI (OVCAR-5 ovarian) was over 50 µM. For the same molecule, the GI50 (NCI-H23 lung) was over 50 µM, the TGI (NCI-H23 lung) was over 50 µM and the GI50 (SK-MEL-2 melanoma) was over 50 µM. For the same molecule, the TGI (SK-MEL-2 melanoma) was over 50 µM, the GI50 (786-0 renal) was 37.7 µM and the TGI (786-0 renal) was over 50 µM. It also gave a GI50 (SN12C renal) of over 50 µM, a TGI (SN12C renal) of over 50 µM and a GI50 (NCI/ADR-RES ovarian) of over 50 µM. For the same molecule, the TGI (NCI/ADR-RES ovarian) was over 50 µM.
